In PubChem BioAssay (NCI):
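Results reflect a 48-hour exposure of cells in 96-well plates to compound at five concentrations. Definition used: TGI = concentration required for complete inhibition of growth.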

Assays:
Assay in all cases: NCI anticancer screen, dose series, 48 h
NCI-H23 lung = tested on: NCI-H23 lung
M14 melanoma = tested on: M14 melanoma
MOLT-4 leukemia = tested on: MOLT-4 leukemia
SW-620 colon = tested on: SW-620 colon
HT29 colon = tested on: HT29 colon
SK-MEL-28 melanoma = tested on: SK-MEL-28 melanoma
NCI-H226 lung = tested on: NCI-H226 lung
HOP-92 NSCLC = tested on: HOP-92 NSCLC
MDA-MB-435 = tested on: MDA-MB-435
SK-MEL-5 melanoma = tested on: SK-MEL-5 melanoma
SF-268 CNS = tested on: SF-268 CNS
NCI/ADR-RES ovarian = tested on: NCI/ADR-RES ovarian
OVCAR-8 ovarian = tested on: OVCAR-8 ovarian
DU-145 prostate = tested on: DU-145 prostate
MDA-MB-231 breast = tested on: MDA-MB-231 breast
T-47D breast = tested on: T-47D breast
NCI-H460 lung = tested on: NCI-H460 lung
OVCAR-3 ovarian = tested on: OVCAR-3 ovarian
OVCAR-5 ovarian = tested on: OVCAR-5 ovarian
NCI-H522 lung = tested on: NCI-H522 lung
LOX IMVI melanoma = tested on: LOX IMVI melanoma
A498 renal = tested on: A498 renal
UO-31 renal = tested on: UO-31 renal
HS 578T breast = tested on: HS 578T breast
OVCAR-4 ovarian = tested on: OVCAR-4 ovarian
A549 NSCLC = tested on: A549 NSCLC
SF-539 CNS = tested on: SF-539 CNS
COLO 205 colon = tested on: COLO 205 colon
CCRF-CEM leukemia = tested on: CCRF-CEM leukemia
SK-MEL-2 melanoma = tested on: SK-MEL-2 melanoma
MALME-3M melanoma = tested on: MALME-3M melanoma
SK-OV-3 ovarian = tested on: SK-OV-3 ovarian
U251 CNS = tested on: U251 CNS
786-0 renal = tested on: 786-0 renal
CAKI-1 renal = tested on: CAKI-1 renal
RXF 393 renal = tested on: RXF 393 renal
UACC-62 melanoma = tested on: UACC-62 melanoma
RPMI-8226 leukemia = tested on: RPMI-8226 leukemia
HL-60(TB) leukemia = tested on: HL-60(TB) leukemia
PC-3 prostate = tested on: PC-3 prostate
SN12C renal = tested on: SN12C renal
HCC-2998 colon = tested on: HCC-2998 colon
HOP-62 NSCLC = tested on: HOP-62 NSCLC
EKVX NSCLC = tested on: EKVX NSCLC
IGROV1 ovarian = tested on: IGROV1 ovarian
MDA-N = tested on: MDA-N
SNB-19 CNS = tested on: SNB-19 CNS
K-562 leukemia = tested on: K-562 leukemia
UACC-257 melanoma = tested on: UACC-257 melanoma
SF-295 CNS = tested on: SF-295 CNS
ACHN renal = tested on: ACHN renal
SNB-75 CNS = tested on: SNB-75 CNS
SR leukemia = tested on: SR leukemia
HCT-15 colon = tested on: HCT-15 colon
HCT-116 colon = tested on: HCT-116 colon

Measured: TGI

CCCCCC(/C=N/Nc1ccccc1)C(O)(C(F)(F)F)C(F)(F)F (stereo not given)
> 100 µM: all assays above
